# Measured values: PubChem BioAssay AID1918996 (Molecular Pharmacology Branch, DTP, NCI, 2023)
# pIC50: −log10 of the molar value.
# System: 349418-098-R-PDC complex spheroid growth
# Test: Anticancer human tumor 349418-098-R-PDC patient-derived lung adenocarcinoma cell line growth inhibition [AhR]
# Details: for pIC50: curve of first compound; for viability, T/C: stronger effect = lower value
# In short: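 Complex tumor spheroids co-cultured with HUVEC and human MSC stroma; AhR antagonists tested in combination with standard-of-care and investigational agents. Top concentration at or near clinical Cmax (else 10 microM), half-log dilutions; growth expressed as percent test/control.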
# [1] = second compound 0.1 µM, first compound 0.0316 µM
# [2] = second compound 0.1 µM, first compound 0.1 µM
# [3] = second compound 0.1 µM, first compound 0.316 µM
# [4] = second compound 0.1 µM, first compound 1 µM
# [5] = second compound 0.1 µM, first compound 3.16 µM
# [6] = second compound 0.1 µM, first compound 10 µM
# [7] = second compound 0.316 µM, first compound 0.0316 µM
# [8] = second compound 0.316 µM, first compound 0.1 µM
# [9] = second compound 0.316 µM, first compound 0.316 µM
# [10] = second compound 0.316 µM, first compound 1 µM
# [11] = second compound 0.316 µM, first compound 3.16 µM
# [12] = second compound 0.316 µM, first compound 10 µM
# [13] = second compound 1 µM, first compound 0.0316 µM
# [14] = second compound 1 µM, first compound 0.1 µM
# [15] = second compound 1 µM, first compound 0.316 µM
# [16] = second compound 1 µM, first compound 1 µM
# [17] = second compound 1 µM, first compound 3.16 µM
# [18] = second compound 1 µM, first compound 10 µM
# [19] = second compound 3.16 µM, first compound 0.0316 µM
# [20] = second compound 3.16 µM, first compound 0.1 µM
# [21] = second compound 3.16 µM, first compound 0.316 µM
# [22] = second compound 3.16 µM, first compound 1 µM
# [23] = second compound 3.16 µM, first compound 3.16 µM
# [24] = second compound 3.16 µM, first compound 10 µM
# [25] = second compound 10 µM, first compound 0.0316 µM
# [26] = second compound 10 µM, first compound 0.1 µM
# [27] = second compound 10 µM, first compound 0.316 µM
# [28] = second compound 10 µM, first compound 1 µM
# [29] = second compound 10 µM, first compound 3.16 µM
# [30] = second compound 10 µM, first compound 10 µM
# 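Also: spheroids exposed to agents for seven days before luminescence viability read.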
# 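For viability, T/C in this document: spheroids also contain HUVEC endothelial cells and human MSC stroma.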
pIC50 (second compound 0.1 µM),pIC50 (second compound 0.316 µM),pIC50 (second compound 1 µM),pIC50 (second compound 3.16 µM),pIC50 (second compound 10 µM),Compound,"viability, T/C [1] [%]","viability, T/C [2] [%]","viability, T/C [3] [%]","viability, T/C [4] [%]","viability, T/C [5] [%]","viability, T/C [6] [%]","viability, T/C [7] [%]","viability, T/C [8] [%]","viability, T/C [9] [%]","viability, T/C [10] [%]","viability, T/C [11] [%]","viability, T/C [12] [%]","viability, T/C [13] [%]","viability, T/C [14] [%]","viability, T/C [15] [%]",other results
< 5.00,< 5.00,< 5.00,< 5.00,6.77,CC(C)c1c(-c2ccccc2)nc2c(C#N)c[nH]n2c1=O + CC(CO)NC(=O)c1cc(-c2ccc(Cl)cc2)nn(-c2cnn(C)c2)c1=O,91.8,66.8,98.2,68.5,77,78,66.9,93.3,67.7,78.7,85.7,60.8,91.3,70.7,88.3,"viability, T/C [16]: 67.1%; viability, T/C [17]: 58.2%; viability, T/C [18]: 70.3%; viability, T/C [19]: 70.3%; viability, T/C [20]: 86.2%; viability, T/C [21]: 71.8%; viability, T/C [22]: 77.2%; viability, T/C [23]: 56.4%; viability, T/C [24]: 60.4%; viability, T/C [25]: 54.3%; viability, T/C [26]: 55.3%; viability, T/C [27]: 46.5%; viability, T/C [28]: 45%; viability, T/C [29]: 43.6%; viability, T/C [30]: 45.5%"
5.69,5.90,6.07,5.97,6.43,COc1ccc([C@@H](O)c2cc(-c3ncnc4cc(N5CCOCC5)ccc34)c(F)cc2Cl)nn1 + CC(CO)NC(=O)c1cc(-c2ccc(Cl)cc2)nn(-c2cnn(C)c2)c1=O,81.3,89.9,62.5,75.7,35.3,13.8,89.3,89.7,87,55.5,25.4,15.4,96.9,119,97.1,"viability, T/C [16]: 41%; viability, T/C [17]: 41.2%; viability, T/C [18]: 13.2%; viability, T/C [19]: 66.2%; viability, T/C [20]: 85.8%; viability, T/C [21]: 64.8%; viability, T/C [22]: 50.1%; viability, T/C [23]: 30%; viability, T/C [24]: 13.5%; viability, T/C [25]: 53.6%; viability, T/C [26]: 52.6%; viability, T/C [27]: 53.3%; viability, T/C [28]: 36.9%; viability, T/C [29]: 17%; viability, T/C [30]: 13.5%"
> 7.50,> 7.50,> 7.50,> 7.50,> 7.50,COc1cccc2c1C(=O)c1c(O)c3c(c(O)c1C2=O)CC(O)(C(=O)CO)CC3OC1CC(N)C(O)C(C)O1 (stereo not given) + Cc1ccccc1N=Nc1ccc(NC(=O)c2ccnn2C)c(C)c1,25.2,19,5.76,0.44,4.06,7.47,21.5,17.8,5.6,1.97,4.18,7.15,24.3,19.2,6.34,"viability, T/C [16]: 0.81%; viability, T/C [17]: 4.84%; viability, T/C [18]: 6.54%; viability, T/C [19]: 23.6%; viability, T/C [20]: 18%; viability, T/C [21]: 6.45%; viability, T/C [22]: 0.66%; viability, T/C [23]: 4.34%; viability, T/C [24]: 6.09%; viability, T/C [25]: 20.4%; viability, T/C [26]: 15.6%; viability, T/C [27]: 4.32%; viability, T/C [28]: 1.12%; viability, T/C [29]: 3.09%; viability, T/C [30]: 7.07%"
